Experimental findings from ChEMBL document CHEMBL5465560, “Selectivity Literature for EUbOPEN Chemogenomic Library” (2024) are described below.

The target of experiment [1] is T1, Tyrosine-protein kinase TXK (Homo sapiens) (UniProt P42681).
T1 sequence (whole entry): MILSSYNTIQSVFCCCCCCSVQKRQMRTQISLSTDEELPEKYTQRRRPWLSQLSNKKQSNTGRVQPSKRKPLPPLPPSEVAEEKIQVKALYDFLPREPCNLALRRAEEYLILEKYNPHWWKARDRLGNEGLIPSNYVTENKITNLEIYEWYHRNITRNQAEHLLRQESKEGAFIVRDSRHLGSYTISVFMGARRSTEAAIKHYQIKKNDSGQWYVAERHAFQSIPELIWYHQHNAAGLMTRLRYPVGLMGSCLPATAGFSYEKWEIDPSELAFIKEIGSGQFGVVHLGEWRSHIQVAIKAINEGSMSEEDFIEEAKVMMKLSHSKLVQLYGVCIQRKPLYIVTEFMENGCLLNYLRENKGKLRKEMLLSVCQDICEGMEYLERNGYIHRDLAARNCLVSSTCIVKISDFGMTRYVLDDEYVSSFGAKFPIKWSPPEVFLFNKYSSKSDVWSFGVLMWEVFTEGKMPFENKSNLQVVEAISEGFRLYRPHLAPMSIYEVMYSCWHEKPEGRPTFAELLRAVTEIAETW
Conditions: at 10 µM.

Experiment [2] addresses T2, Calcium/calmodulin-dependent protein kinase type IV (Homo sapiens) (UniProt Q16566).
T2 sequence (whole entry): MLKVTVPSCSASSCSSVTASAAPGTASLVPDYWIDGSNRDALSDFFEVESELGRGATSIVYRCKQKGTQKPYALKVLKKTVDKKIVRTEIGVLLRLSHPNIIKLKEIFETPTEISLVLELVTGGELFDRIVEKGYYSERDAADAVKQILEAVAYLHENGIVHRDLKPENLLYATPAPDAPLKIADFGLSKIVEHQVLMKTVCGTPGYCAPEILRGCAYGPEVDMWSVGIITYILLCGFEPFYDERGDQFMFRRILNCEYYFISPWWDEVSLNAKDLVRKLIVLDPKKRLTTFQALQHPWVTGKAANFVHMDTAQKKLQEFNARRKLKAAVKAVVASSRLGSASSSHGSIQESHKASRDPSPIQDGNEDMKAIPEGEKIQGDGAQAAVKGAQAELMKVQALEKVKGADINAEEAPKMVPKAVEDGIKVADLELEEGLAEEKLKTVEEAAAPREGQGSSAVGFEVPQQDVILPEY
The experiment in a line: Selectivity interaction (Kinase panel (DSF assay)) EUB0001558a CAMK4. A general note: In DSF a fluorescence change marks the thermal transition of the protein.

Experiment [3] deals with T3, NUAK family SNF1-like kinase 2 (Homo sapiens) (UniProt Q9H093).
T3 sequence (whole entry): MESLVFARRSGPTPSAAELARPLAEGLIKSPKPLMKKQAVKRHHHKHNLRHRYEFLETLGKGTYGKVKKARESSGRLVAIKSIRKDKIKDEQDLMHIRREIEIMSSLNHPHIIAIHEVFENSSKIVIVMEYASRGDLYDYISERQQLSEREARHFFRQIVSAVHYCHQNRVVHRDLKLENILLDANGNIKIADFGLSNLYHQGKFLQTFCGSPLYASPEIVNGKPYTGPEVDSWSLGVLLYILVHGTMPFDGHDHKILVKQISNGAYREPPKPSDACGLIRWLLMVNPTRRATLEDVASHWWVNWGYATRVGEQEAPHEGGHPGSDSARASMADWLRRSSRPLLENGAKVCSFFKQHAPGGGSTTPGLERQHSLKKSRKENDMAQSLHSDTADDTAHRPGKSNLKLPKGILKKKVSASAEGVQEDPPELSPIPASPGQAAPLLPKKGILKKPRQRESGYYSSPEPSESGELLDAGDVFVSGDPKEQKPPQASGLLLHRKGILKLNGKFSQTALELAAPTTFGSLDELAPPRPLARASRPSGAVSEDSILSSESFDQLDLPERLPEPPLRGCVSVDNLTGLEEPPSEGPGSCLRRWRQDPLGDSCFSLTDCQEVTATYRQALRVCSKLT
Briefly: Selectivity interaction (KinomeScan (DiscoverX)) EUB0000655a NUAK2. Conditions: at 10 µM.

In experiment [4] the target is MAP/microtubule affinity-regulating kinase 3 (Homo sapiens) (UniProt P27448). The experiment in a line: Selectivity interaction (ActivX KiNativ screen (kinase selectivity in THP-1 cell lysates)) EUB0000639a MARK3. The class given is subcellular. Conditions: lysate, at 5 µM.
The target of experiment [5] is DNA-dependent protein kinase catalytic subunit (Homo sapiens) (UniProt P78527). The experiment in a line: Selectivity interaction (ActivX KiNativ screen (kinase selectivity in THP-1 cell lysates)) EUB0000639a PRKDC. The class given is subcellular. The conditions noted are these: lysate, at 0.04 µM.
For experiment [6], the target named is Tyrosine-protein kinase BTK (Homo sapiens, UniProt Q06187). Briefly: Selectivity interaction (ActivX KiNativ screen (kinase selectivity in THP-1 cell lysates)) EUB0000639a BTK. The experiment is classed as subcellular. Conditions: lysate.
Experiment [7] concerns the target Serine/threonine-protein kinase 10 (Homo sapiens) (UniProt O94804). The experiment in a line: Selectivity interaction (ActivX KiNativ screen (kinase selectivity in THP-1 cell lysates)) EUB0000639a STK10. The conditions noted are these: lysate, at 5 µM. The class given is subcellular.
For experiment [8], the system named is Hepatocyte growth factor receptor (Homo sapiens), P08581 [M1250T]. The experiment in a line: (§1) Selectivity interaction (KinomeScan (DiscoverX)) EUB0001619a MET. Conditions: at 1 µM.
In experiment [9] the target is Hepatocyte growth factor receptor (Homo sapiens, UniProt P08581). The description is as §1. Conditions: at 1 µM.
In experiment [10] the test system is Hepatocyte growth factor receptor (Homo sapiens), P08581 [Y1235D]. The experiment is described as §1. The conditions noted are these: at 1 µM.
Experiment [11] addresses Calcium/calmodulin-dependent protein kinase kinase 2 (Homo sapiens) (UniProt Q96RR4). Briefly: Selectivity interaction (Kinase panel (literature)) EUB0001199aCl CAMKK2. The conditions noted are these: at 1 µM.
The target in experiment [12] is DNA-dependent protein kinase catalytic subunit (Homo sapiens) (UniProt P78527). Briefly: Selectivity interaction (Kinase panel (KiNativ target engagement assay in Jurkat cells)) EUB0001635a PRKDC. The class given is cell-based. The conditions noted are these: Selectivity number of off-targets 0.0, Selectivity number of targets 233.0, Source Knowledge https://www.sciencedirect.com/science/article/pii/S2451945619300674?via%3Dihub, at 1 µM.

The target in experiment [13] is T4, Phosphatidylinositol 5-phosphate 4-kinase type-2 gamma (Homo sapiens) (UniProt Q8TBX8).
T4 sequence (whole entry): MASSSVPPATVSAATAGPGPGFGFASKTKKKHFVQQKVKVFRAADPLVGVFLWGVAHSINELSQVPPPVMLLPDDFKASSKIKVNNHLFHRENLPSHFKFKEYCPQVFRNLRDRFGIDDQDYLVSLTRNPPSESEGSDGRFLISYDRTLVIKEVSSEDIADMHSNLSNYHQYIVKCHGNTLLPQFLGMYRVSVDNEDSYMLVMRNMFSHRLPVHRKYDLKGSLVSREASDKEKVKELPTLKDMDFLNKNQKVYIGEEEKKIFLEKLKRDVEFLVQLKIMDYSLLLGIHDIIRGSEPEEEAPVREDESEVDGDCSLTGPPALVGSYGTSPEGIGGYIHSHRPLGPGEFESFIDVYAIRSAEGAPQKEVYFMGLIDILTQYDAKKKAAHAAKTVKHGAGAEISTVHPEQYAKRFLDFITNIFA
Briefly: Selectivity interaction (KinomeScan (DiscoverX)) EUB0000618a PIP4K2C. The conditions noted are these: at 10 µM.

Chain of Tyrosine-protein kinase BTK (Q06187 whole entry): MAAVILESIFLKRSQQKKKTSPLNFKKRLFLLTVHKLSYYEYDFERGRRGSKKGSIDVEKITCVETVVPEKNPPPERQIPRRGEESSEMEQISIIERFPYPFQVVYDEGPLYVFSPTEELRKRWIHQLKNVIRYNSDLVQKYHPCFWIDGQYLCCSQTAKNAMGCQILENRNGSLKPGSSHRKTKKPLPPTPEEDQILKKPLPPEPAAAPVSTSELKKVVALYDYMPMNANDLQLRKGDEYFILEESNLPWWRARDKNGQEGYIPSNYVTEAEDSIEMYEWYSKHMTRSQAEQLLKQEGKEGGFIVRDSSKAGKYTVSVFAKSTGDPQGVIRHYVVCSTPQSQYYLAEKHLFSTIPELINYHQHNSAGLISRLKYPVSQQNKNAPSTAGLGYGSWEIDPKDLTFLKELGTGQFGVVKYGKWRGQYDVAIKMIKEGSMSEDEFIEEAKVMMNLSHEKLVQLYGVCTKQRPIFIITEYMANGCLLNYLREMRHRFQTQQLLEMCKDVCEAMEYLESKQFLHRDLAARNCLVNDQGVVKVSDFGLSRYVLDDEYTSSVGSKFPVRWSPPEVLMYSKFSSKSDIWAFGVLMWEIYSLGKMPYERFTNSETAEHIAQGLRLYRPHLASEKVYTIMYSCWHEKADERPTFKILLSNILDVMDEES
Chain of DNA-dependent protein kinase catalytic subunit (Homo sapiens) (P78527 whole entry): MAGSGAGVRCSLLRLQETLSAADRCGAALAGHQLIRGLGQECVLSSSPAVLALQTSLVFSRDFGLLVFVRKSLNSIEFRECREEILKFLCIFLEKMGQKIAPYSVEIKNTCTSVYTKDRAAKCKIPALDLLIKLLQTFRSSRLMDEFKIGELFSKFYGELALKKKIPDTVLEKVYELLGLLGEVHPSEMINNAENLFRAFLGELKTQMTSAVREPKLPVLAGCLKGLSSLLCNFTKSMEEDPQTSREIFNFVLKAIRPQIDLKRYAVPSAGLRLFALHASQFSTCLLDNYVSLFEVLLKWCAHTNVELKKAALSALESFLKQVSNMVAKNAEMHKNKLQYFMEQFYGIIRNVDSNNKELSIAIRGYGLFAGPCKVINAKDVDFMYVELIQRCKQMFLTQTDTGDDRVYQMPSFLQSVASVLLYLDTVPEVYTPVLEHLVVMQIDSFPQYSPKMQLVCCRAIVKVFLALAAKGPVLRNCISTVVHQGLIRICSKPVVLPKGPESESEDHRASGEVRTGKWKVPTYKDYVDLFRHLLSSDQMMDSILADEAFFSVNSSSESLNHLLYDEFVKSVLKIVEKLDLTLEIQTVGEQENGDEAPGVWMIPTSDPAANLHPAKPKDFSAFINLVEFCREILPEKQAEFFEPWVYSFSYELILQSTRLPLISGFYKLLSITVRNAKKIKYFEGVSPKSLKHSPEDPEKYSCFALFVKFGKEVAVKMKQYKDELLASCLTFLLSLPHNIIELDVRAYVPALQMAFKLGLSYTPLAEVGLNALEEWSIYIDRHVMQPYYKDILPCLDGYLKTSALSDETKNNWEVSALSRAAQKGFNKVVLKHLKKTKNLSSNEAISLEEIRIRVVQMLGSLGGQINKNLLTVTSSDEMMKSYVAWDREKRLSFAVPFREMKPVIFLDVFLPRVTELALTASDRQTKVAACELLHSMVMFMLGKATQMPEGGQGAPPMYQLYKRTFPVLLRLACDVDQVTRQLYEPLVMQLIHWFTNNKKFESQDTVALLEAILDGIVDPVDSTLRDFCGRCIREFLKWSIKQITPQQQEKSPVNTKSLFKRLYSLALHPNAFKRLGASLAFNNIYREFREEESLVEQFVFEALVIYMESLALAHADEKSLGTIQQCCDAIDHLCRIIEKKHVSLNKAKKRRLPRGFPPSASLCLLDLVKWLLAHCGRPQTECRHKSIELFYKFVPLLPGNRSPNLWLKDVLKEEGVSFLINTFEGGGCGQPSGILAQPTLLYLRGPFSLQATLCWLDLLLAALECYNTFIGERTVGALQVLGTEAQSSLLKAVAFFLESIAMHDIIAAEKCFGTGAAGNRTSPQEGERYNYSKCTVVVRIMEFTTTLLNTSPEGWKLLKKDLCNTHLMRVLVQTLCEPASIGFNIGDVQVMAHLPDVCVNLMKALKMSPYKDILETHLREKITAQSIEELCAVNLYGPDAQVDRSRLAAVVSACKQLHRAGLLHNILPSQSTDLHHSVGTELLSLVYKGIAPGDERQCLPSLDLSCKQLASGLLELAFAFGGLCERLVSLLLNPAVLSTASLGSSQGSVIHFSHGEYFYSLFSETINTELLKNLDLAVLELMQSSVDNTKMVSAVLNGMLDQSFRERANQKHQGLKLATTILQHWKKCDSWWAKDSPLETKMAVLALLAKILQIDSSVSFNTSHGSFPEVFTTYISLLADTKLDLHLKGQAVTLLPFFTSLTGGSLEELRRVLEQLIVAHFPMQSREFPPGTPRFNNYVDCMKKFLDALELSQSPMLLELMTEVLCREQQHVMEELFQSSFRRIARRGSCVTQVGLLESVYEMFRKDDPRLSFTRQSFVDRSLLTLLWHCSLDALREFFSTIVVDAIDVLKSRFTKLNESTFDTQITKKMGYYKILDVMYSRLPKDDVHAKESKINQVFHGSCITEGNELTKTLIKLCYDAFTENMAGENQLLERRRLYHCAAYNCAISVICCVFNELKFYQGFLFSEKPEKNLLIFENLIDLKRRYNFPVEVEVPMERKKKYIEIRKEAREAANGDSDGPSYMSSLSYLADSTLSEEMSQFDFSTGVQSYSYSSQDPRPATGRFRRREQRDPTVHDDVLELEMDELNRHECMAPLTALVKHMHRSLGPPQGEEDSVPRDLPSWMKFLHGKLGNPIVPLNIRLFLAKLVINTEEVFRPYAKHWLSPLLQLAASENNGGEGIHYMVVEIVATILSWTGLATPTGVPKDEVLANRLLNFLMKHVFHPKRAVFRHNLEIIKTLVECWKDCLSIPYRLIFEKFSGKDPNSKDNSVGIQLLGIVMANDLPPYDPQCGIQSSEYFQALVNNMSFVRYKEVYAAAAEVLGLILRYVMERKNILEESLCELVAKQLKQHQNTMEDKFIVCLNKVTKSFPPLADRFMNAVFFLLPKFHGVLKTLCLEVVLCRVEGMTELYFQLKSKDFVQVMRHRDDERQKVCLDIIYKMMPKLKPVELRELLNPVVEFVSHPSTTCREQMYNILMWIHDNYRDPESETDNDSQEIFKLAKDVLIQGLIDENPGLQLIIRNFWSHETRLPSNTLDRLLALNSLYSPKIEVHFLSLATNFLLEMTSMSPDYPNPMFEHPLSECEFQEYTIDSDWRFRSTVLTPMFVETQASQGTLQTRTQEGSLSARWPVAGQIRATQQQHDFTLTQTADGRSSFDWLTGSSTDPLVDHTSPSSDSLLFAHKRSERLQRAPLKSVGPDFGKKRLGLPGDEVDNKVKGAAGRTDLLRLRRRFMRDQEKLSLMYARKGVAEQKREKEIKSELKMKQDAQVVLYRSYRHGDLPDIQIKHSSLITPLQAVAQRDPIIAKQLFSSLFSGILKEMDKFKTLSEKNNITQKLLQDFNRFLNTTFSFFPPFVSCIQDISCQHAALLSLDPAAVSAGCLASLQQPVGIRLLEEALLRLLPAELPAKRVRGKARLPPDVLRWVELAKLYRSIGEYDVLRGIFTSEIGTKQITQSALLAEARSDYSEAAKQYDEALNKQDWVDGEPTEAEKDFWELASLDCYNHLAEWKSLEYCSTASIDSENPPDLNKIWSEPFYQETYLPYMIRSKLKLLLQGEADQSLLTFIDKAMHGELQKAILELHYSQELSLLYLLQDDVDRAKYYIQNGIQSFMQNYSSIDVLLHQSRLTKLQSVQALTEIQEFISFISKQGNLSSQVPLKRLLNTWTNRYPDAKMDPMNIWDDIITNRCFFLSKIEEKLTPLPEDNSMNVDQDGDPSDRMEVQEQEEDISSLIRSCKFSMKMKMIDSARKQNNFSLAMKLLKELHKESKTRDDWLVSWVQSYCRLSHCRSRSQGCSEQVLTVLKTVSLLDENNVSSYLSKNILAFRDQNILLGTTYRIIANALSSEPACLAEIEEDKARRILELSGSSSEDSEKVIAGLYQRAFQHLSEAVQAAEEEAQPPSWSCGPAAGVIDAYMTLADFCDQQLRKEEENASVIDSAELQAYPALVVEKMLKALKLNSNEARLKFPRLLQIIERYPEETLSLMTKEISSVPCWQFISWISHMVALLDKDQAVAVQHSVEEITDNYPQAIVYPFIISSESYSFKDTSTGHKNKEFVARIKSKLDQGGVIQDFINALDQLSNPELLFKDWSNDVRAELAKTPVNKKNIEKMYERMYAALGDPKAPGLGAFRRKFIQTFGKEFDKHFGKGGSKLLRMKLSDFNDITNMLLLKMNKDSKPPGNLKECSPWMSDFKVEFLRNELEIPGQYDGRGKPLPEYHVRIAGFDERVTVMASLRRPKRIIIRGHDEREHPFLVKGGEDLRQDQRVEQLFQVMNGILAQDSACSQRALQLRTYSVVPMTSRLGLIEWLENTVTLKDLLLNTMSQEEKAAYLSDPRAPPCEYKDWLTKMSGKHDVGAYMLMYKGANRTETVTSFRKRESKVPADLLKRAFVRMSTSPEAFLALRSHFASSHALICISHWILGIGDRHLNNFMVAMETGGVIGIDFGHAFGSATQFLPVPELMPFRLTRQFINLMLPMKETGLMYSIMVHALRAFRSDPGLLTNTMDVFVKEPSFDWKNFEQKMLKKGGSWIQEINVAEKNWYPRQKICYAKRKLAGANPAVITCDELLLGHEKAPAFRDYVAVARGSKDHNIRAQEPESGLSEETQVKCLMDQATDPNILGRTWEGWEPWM

In turn, `Cc1cc([C@@H](C)Nc2ccccc2C(=O)O)c2nc(N3CCOCC3)cc(=O)n2c1` [AZD-6482] came in with a % of control in [1] of 90%.

`CC(C)(O)[C@H](F)CN1Cc2cc(NC(=O)c3cnn4cccnc34)c(N3CCOCC3)cc2C1=O`: the dTM in experiment [2] was 1 K.

In the case of `CN(C)CCOc1ccc(-c2nc(-c3ccncc3)c(-c3ccc4c(c3)CC/C4=N\O)[nH]2)cc1`, in experiment [3], the % of control turned out to be 95%.

Consider `CC[C@@H]1[C@H](F)C(=O)N[C@@H]1COc1nccc2cc(C(N)=O)c(OC)cc12` [ZIMLOVISERTIB], for which the % of inhibition in [4] was 45.6%; in experiment [5], -0.6%; in experiment [6] (at 0.01 µM) it was -9.7%; in experiment [6] (at 0.04 µM), -8.8%; in experiment [6] (at 0.2 µM), 2.6%; in experiment [6] (at 1 µM) it was 11.9%. For the same compound, the % of inhibition in experiment [6] (at 5 µM) is 0.7%; in experiment [7] it was -21.8%.

With `N#Cc1cccc(-c2c[nH]c3ncnc(N4CCOCC4)c23)c1`, the % of control in experiment [8] was found to be 96%; in experiment [9] it was 93%; in experiment [10], 93%.

Regarding `CN1Cc2nccc(-c3cn(C)nc3-c3ccc(F)cc3)c2C1=O`, in [11], the % of inhibition is -3%.

With `C=CC(=O)Nc1ccc(C(=O)Nc2[nH]nc3c2CN(C(=O)N[C@H](CN(C)C)c2ccccc2)C3(C)C)cc1`, in [12], the % of engagement was -14%.

For `O[C@H]1CC[C@H](Nc2ncc3nc(Nc4c(F)cc(F)cc4F)n([C@H]4CCOC4)c3n2)CC1`, the % of control in [13] was 32%.
